Data as given in US9193673B2, “Derivatives of mesalazine, process of their preparation and their use in the treatment of intestinal inflammatory diseases” (SOFAR SPA, priority 2010, dated 2015).
Several values for one entry are separate records, joined by “and”; a condition that tells them apart may be missing. Equal values may be shown once. Entries after “also recorded” stand apart in the source; their conditions may differ. Read-outs that look alike come from different tables or passages of the source.

Tests used:
[1] = Hydrolysis in rat intestine preserved in different conditions; assay type: in vitro ADME
Description: Such study is conducted with the aim of surveying the stability of the compound (IV) in rat intestine homogenate preserved in different conditions: frozen at […] and at −80° C.
(§1) The stability of the compound (IV) is compared to that of known reference standards.

[2] = Stability of the compound (IV) in storage at 25° C. (60% RH) and at 40° C. (75% RH); assay type: physicochemical; settings: for Titre % Mean / Titre %: 3 months; for Titre % Mean: mean of samples; for Titre %: single samples
Description: The object of such study is the evaluation of the stability of the compound (IV) kept at a temperature equivalent to 25° C. (60% RH) and at 40° C. (75% RH). In particular, such study aims at evaluating the titre of the compound (IV) in the stability test at 25° C. (60% RH) at 3, 6, 9, 12, 18, 24, 36, 48, 60 months and in the stability test accelerated at 40° C. (75% RH) at 3, 6, 9, 12 months.
The compound (IV) is divided into 10 Eppendorfs numbered from 1 to 10, containing about 50 mg of product and stored in a cellar at 25° C. 60% RH.
Other 4 Eppendorfs numbered from 11 to 14, containing about 50 mg of product are introduced into an oven at a temperature equivalent to 40° C. 75% RH.

[3] = Stability in murine intestinal homogenate; assay type: in vitro ADME, rat
Description: Such study is conducted with the aim of evaluating the stability of the compound (IV) in intestinal homogenate.
as §1

[4] = Stability in human plasma (hydrolysis by plasma esterases); assay type: in vitro ADME
Description: Such study is conducted with the aim of evaluating possible hydrolysis of the compound (IV) by the plasma esterases. The percentage of hydrolysis of the compound (IV) is compared to that of known reference standards.

[5] = Stability in simulated gastric and simulated intestinal fluids; assay type: physicochemical
Description: Such study is conducted with the aim of evaluating the stability of the compound (IV) at […] in absence of enzymes of the intestinal bacterial flora.
as §1

[6] = In vivo pharmacokinetic in the rat after i.v. and p.o. administration of compound (IV)
[7] = compound (IV) i.v. 5 mg/kg, rat, individual rats
[8] = compound (IV) i.v. 5 mg/kg, rat, individual rats, 5 mg/kg
[9] = compound (IV) oral gavage 50 mg/kg, rat, individual rats, 50 mg/kg

Metabolism in fresh rat intestine homogenate ([1]; fresh homogenate): metabolised quickly | Stability in rat intestine (residue %) ([1]; fresh homogenate, 15 min): 0.030 ± 0.015% | Stability in rat intestine (residue %) ([1]; fresh homogenate, 30 min): 0.031 ± 0.004% | Stability in rat intestine (residue %) ([1]; fresh homogenate, 60 min): 0.047 ± 0.021% | Stability in rat intestine (residue %) ([1]; homogenate 4° C., 15 min): 0.046 ± 0.004% | Stability in rat intestine (residue %) ([1]; homogenate 4° C., 30 min): 0.046 ± 0.022% | Stability in rat intestine (residue %) ([1]; homogenate 4° C., 60 min): 0.064 ± 0.008% | Stability in rat intestine (residue %) ([1]; homogenate −80° C., 15 min): 0.024 ± 0.007% | Stability in rat intestine (residue %) ([1]; homogenate −80° C., 30 min): 0.034 ± 0.001% | Stability in rat intestine (residue %) ([1]; homogenate −80° C., 60 min): 0.470 ± 0.012% | Stability in rat intestine (residue %) ([1]; intestine −80° C., 15 min): 0.145 ± 0.029% | Stability in rat intestine (residue %) ([1]; intestine −80° C., 30 min): 0.091 ± 0.038% | Stability in rat intestine (residue %) ([1]; intestine −80° C., 60 min): 0.098 ± 0.002% | Titre % Mean ([2]; 25° C. 60% RH): 98.1% | Titre % ([2]; 25° C. 60% RH): 98.2% and 98.1% | Titre % Mean ([2]; 40° C. 75% RH): 101.2% | Titre % ([2]; 40° C. 75% RH): 99.8% and 102.6% | Titre ([2]; time t=0): 99.3% | Residue percentage ([3]; rat intestinal homogenate, 25 μM, 30 min): 9.8 ± 1.1% | Residue percentage ([3]; rat intestinal homogenate, 25 μM, 1 hr): 12.2 ± 1.6% | Residue percentage ([3]; rat intestinal homogenate, 25 μM, 2 hrs): 10.1 ± 4.4% | Residue percentage ([3]; rat intestinal homogenate, 25 μM, 4 hrs): 24.5 ± 1.3(*) % | Residue percentage ([3]; rat intestinal homogenate, 50 μM, 30 min): 5.6 ± 0.6% | Residue percentage ([3]; rat intestinal homogenate, 50 μM, 1 hr): 4.4 ± 1.1% | Residue percentage ([3]; rat intestinal homogenate, 50 μM, 2 hrs): 7.3 ± 1.0% | Residue percentage ([3]; rat intestinal homogenate, 50 μM, 4 hrs): 5.5 ± 1.1% | Hydrolysis ([3]; tested at two concentrations (25 and 50 μM)): 90-95% | % Residue at 60 min ([4]; Human plasma, 60 min): 32.7 ± 2.6% | Hydrolysis in plasma ([4]; human plasma): high hydrolysis percentage | % hydrolysed ([4]; human plasma, after 1 hour of incubation): 67.3% | % Residue ([5]; SGF, 30 min incubation): 97.3 ± 1.1% | % Residue ([5]; SGF, 60 min incubation): 99.9 ± 0.9% | % Residue ([5]; SIF, 30 min incubation): 97.4 ± 4.1% | % Residue ([5]; SIF, 60 min incubation): 103.2 ± 3.5% | Stability in SIF and SGF ([5]; both media): stable in both media | Pharmacokinetic parameters ([6]; administered p.o. and i.v. in rats): good pharmacokinetic parameters | Metabolism in vivo ([6]; after i.v. and p.o. treatment, rat): metabolised quickly | Tlast [6, 7]: 1440 min | Tmax [6, 7]: 2 min | AUCinf [6, 8]: 18700 ng·min/mL and 22424 ng·min/mL | AUClast [6, 8]: 17271 ng·min/mL and 21300 ng·min/mL | Cl [6, 8]: 229.9 mL/min/kg and 191.8 mL/min/kg | Clast [6, 8]: 1.8 ng/mL and 1.7 ng/mL | Cmax [6, 8]: 529 ng/mL and 851.2 ng/mL | MRT [6, 8]: 209 min and 175 min | T½ [6, 8]: 547.1 min and 451.8 min | Vdss [6, 8]: 115.3 L/kg and 51.9 L/kg | Tlast Mean ([6]; compound (IV) i.v. 5 mg/kg, rat, mean): 1440 min | AUCinf [6, 9]: 3985 ng·min/mL and 5954 ng·min/mL | AUClast [6, 9]: 3943 ng·min/mL and 5925 ng·min/mL | Clast [6, 9]: 2.9 ng/mL and 0.8 ng/mL and 1.3 ng/mL | Cmax [6, 9]: 104 ng/mL and 174 ng/mL | MRTlast [6, 9]: 48 min and 32 min and 23 min | Tlast [6, 9]: 240 min (2×) and 120 min | Tmax [6, 9]: 30 min and 15 min and 5 min | Tlast Mean ([6]; compound (IV) oral gavage 50 mg/kg, rat, mean): 200 min | bioavailability ([6]; plasma, oral gavage 50 mg/kg vs i.v. 5 mg/kg, rat, read-out: Mean Fpo 0_inf (%) (mean p.o. bioavailability)): 2.4% | AUC(0-inf) ([6]; rat, plasma, iv, 5 mg/kg, compound (IV) i.v. 5 mg/kg, rat, individual rats, read-out: AUCinf (converted)): 341 ng·h/mL | AUC(0-t) ([6]; rat, plasma, iv, 5 mg/kg, compound (IV) i.v. 5 mg/kg, rat, individual rats, read-out: AUClast (converted)): 296 ng·h/mL | clearance ([6]; rat, plasma, iv, 5 mg/kg, compound (IV) i.v. 5 mg/kg, rat, individual rats, read-out: Cl): 210 mL/min/kg | concentration at 1440 min ([6]; rat, plasma, iv, 5 mg/kg, compound (IV) i.v. 5 mg/kg, rat, individual rats, read-out: Clast): 2.9 ng/mL | Cmax ([6]; rat, plasma, iv, 5 mg/kg, compound (IV) i.v. 5 mg/kg, rat, individual rats, read-out: Cmax): 598 ng/mL | MRT ([6]; rat, plasma, iv, 5 mg/kg, compound (IV) i.v. 5 mg/kg, rat, individual rats, read-out: MRT (converted)): 273 min | Tmax ([6]; rat, plasma, iv, 5 mg/kg, compound (IV) i.v. 5 mg/kg, rat, individual rats, read-out: Tmax (converted)): 2 min | half-life ([6]; rat, plasma, iv, 5 mg/kg, compound (IV) i.v. 5 mg/kg, rat, individual rats, read-out: T½): 638 min | AUC(0-inf) ([6]; rat, plasma, iv, 5 mg/kg, compound (IV) i.v. 5 mg/kg, rat, mean, read-out: AUCinf Mean (converted)): 342 ng·h/mL | AUC(0-t) ([6]; rat, plasma, iv, 5 mg/kg, compound (IV) i.v. 5 mg/kg, rat, mean, read-out: AUClast Mean (converted)): 313 ng·h/mL | clearance ([6]; rat, plasma, iv, 5 mg/kg, compound (IV) i.v. 5 mg/kg, rat, mean, read-out: Cl Mean): 211 mL/min/kg | concentration at 1440 min ([6]; rat, plasma, iv, 5 mg/kg, compound (IV) i.v. 5 mg/kg, rat, mean, read-out: Clast Mean): 2.1 ng/mL | Cmax ([6]; rat, plasma, iv, 5 mg/kg, compound (IV) i.v. 5 mg/kg, rat, mean, read-out: Cmax Mean): 659 ng/mL | MRT ([6]; rat, plasma, iv, 5 mg/kg, compound (IV) i.v. 5 mg/kg, rat, mean, read-out: MRT Mean (converted)): 219 min | Tmax ([6]; rat, plasma, iv, 5 mg/kg, compound (IV) i.v. 5 mg/kg, rat, mean, read-out: Tmax Mean (converted)): 2 min | half-life ([6]; rat, plasma, iv, 5 mg/kg, compound (IV) i.v. 5 mg/kg, rat, mean, read-out: T½ Mean): 546 min | Vd ([6]; rat, plasma, iv, 5 mg/kg, compound (IV) i.v. 5 mg/kg, rat, mean, read-out: Vdss Mean): 83.5 L/kg | concentration at 200 min ([6]; rat, plasma, oral, 50 mg/kg, compound (IV) oral gavage 50 mg/kg, rat, mean, read-out: Clast Mean): 2.8 ng/mL | concentration at 4 h ([6]; rat, plasma, po, 50 mg/kg, after p.o. administration, rat, 4 hours): 1 ng/mL | Cmax ([6]; rat, plasma, po, 50 mg/kg, after p.o. administration, rat, read-out: Cmax): 95 ng/mL | AUC(0-inf) ([6]; rat, plasma, po, 50 mg/kg, compound (IV) oral gavage 50 mg/kg, rat, individual rats, read-out: AUCinf (converted)): 76.5 ng·h/mL | AUC(0-t) ([6]; rat, plasma, po, 50 mg/kg, compound (IV) oral gavage 50 mg/kg, rat, individual rats, read-out: AUClast (converted)): 67.4 ng·h/mL | Cmax ([6]; rat, plasma, po, 50 mg/kg, compound (IV) oral gavage 50 mg/kg, rat, individual rats, read-out: Cmax): 89 ng/mL | AUC(0-inf) ([6]; rat, plasma, po, 50 mg/kg, compound (IV) oral gavage 50 mg/kg, rat, mean, read-out: AUCinf Mean (converted)): 80.7 ng·h/mL | AUC(0-t) ([6]; rat, plasma, po, 50 mg/kg, compound (IV) oral gavage 50 mg/kg, rat, mean, read-out: AUClast Mean (converted)): 77.3 ng·h/mL | Cmax ([6]; rat, plasma, po, 50 mg/kg, compound (IV) oral gavage 50 mg/kg, rat, mean, read-out: Cmax Mean): 122 ng/mL | MRT last ([6]; rat, plasma, po, 50 mg/kg, compound (IV) oral gavage 50 mg/kg, rat, mean, read-out: MRTlast Mean (converted)): 35 min | Tmax ([6]; rat, plasma, po, 50 mg/kg, compound (IV) oral gavage 50 mg/kg, rat, mean, read-out: Tmax Mean (converted)): 16.7 min
Compound: CCCC(=O)Oc1ccc(N)cc1C(=O)O.Cl [Compound (IV), 5-amino-2-(butyryloxy)benzoic acid]
Stability in storage ([2]; 25° C. 60% RH and 40° C. 75% RH): does not seem to be subjected to considerable modifications; also recorded: stable in storage | Stability in the rat intestine ([3]; rat intestinal homogenate): very unstable in the rat intestine; also recorded: quickly metabolised in the rat intestine
